The record followed here is PubChem BioAssay (NCI).

“And” between values parts separate entries of the source, which are not always exact repeats. Identical values can stand only once.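 48-hour exposure; five concentrations; linearly interpolated endpoints. GI50 = concentration required for 50% inhibition of growth. The concentration for full growth arrest is given as TGI.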

In one test the test system is NCI-H460 lung. The test can be described thus: NCI-60 cell line screen, 48 h.
Turning to `Nc1nccc2c1ccn2-c1ccc(NC(=O)c2ccc(N3CCOCC3)c(C(F)(F)F)c2)cc1`, the GI50 was 0.352 µM and the TGI was 1.65 µM.
As for `Cc1[nH]c2ccccc2c1-c1cc(-c2cc(-c3c(C)[nH]c4ccccc34)on2)no1`, the TGI was greater than 100 µM.
Take `Cn1cnc([N+](=O)[O-])c1S(=O)(=O)Oc1ccccc1`: the GI50 was 23.9 µM and the TGI is greater than 72.8 µM.
Turning to `COc1cc(C2c3cc4c(cc3C(O)C(CO)C2CO)OCO4)cc(OC)c1OC` (stereo unspecified), the GI50 is 0.463 µM and the TGI was greater than 26.4 µM.
Compound `CCCNC(=S)/N=C/c1c(O)c2ccccc2[nH]c1=O` gave a TGI greater than 100 µM.
For the compound `COc1ccc(-c2oc(=O)ccc2-c2cc(OC)c(OC)c(OC)c2)cc1F`, the GI50 is 5.43 µM and the TGI was greater than 100 µM.
Consider `O=C(c1ccc(F)c(F)c1Nc1ccc(I)cc1F)N1CC(O)([C@@H]2CCCCN2)C1`, for which the GI50 was 2.92 µM and 2.42 µM; the TGI was 17.9 µM and > 10 µM.
Turning to `Oc1cc(O)c2c(c1)OC(c1ccc(O)c(O)c1)C(OC1(c3cc(O)c(O)c(O)c3)Oc3cc(O)cc(O)c3C(O)C1O)C2` (stereo unspecified), the TGI is 36.8 µM.
For `COC12C=C/C(=C(/C(=O)OCc3ccncc3)C(=O)CCCCCCCCC3(OC)C=C/C(=C(/C(=O)OCc4ccncc4)C(=O)CCCCCCCC1)O3)O2`, the GI50 is 0.915 µM and the TGI stood at 1.98 µM.
The matching figures for `CCOc1ccc2nc(S/C(=C/C=C(C#N)C#N)c3ccc(C)cc3)sc2c1`: 22.7 µM and 57.9 µM.
The matching figures for `COc1cc(CNCCCN2C(=O)c3ccc4c5c(ccc(c35)C2=O)C(=O)N(CCCNCc2cc(OC)c(OC)c(OC)c2)C4=O)cc(OC)c1OC`: 0.316 µM and 1.04 µM.
On to `CC(C)=CCc1cc(O)cc2c1OC(C=C(C)C)C1=C2C(=O)C2=C(NCCS2(=O)=O)C1=O` (stereo unspecified), for which the GI50 was 1.2 µM and the TGI is 4.28 µM.
Taken in the same sequence, the figures for `O=c1[nH]c(=O)n(C2CC(O)C(CO)O2)cc1CO` (stereo unspecified) were 37.1 µM and greater than 100 µM.
With `Cc1nc2cnc(N)c(C#Cc3cncc(C(=O)Nc4ccc(CN5CCN(C)CC5)c(C(F)(F)F)c4)c3)c2nc1C`, the GI50 is 0.478 µM and the TGI came out at 11.7 µM.
Compound `O=C1NC(=S)NNC12c1ccccc1-c1ccccc12` showed a TGI greater than 10 µM.
For `CC(=O)OC12c3ccccc3-c3ccccc3C1C1C(=O)N(C)C(=O)C12Cl` (stereo unspecified), the TGI is greater than 10 µM.
Consider `COc1ccc(C(O)c2nccn2C)c(OC)c1` (stereo unspecified), for which the TGI was greater than 100 µM.
The compound `C1CSCCSCCS1` returned a TGI greater than 100 µM.
Regarding `CC1=CC(=O)[C@@H](O)[C@]2(C)[C@H]3[C@@]4(O)OC[C@]35[C@H]([C@@H](C)[C@H]4O)[C@@H](O)C(=O)O[C@@H]5C[C@@H]12`, the TGI was determined as 4.85 µM.
Regarding `COc1ccc2[nH]cc(-c3nc(-c4c[nH]c5ncccc45)cs3)c2c1`, the GI50 is 3.26 µM and the TGI is greater than 100 µM.
As for `O=c1cc(-c2ccccc2)[nH]c2c(S)cccc12`, the TGI is greater than 100 µM.
Same read-out and setting: as for `N#Cc1c(-c2ccc(F)cc2)c(-c2ccc(F)cc2)nn(CCO)c1=O`, the figure is greater than 25.1 µM; as for `CN(C)c1c([O-])c(=[N+](C)C)c1=O`, greater than 100 µM.

The subject of a further test is SNB-19 CNS. As to the kind of experiment: NCI-60 cell line screen, 48 h.
Turning to `Nc1nccc2c1ccn2-c1ccc(NC(=O)c2ccc(N3CCOCC3)c(C(F)(F)F)c2)cc1`, the GI50 is 0.61 µM and the TGI came to 8.13 µM.
In the case of `Cc1[nH]c2ccccc2c1-c1cc(-c2cc(-c3c(C)[nH]c4ccccc34)on2)no1`, the TGI is greater than 100 µM.
For `Cn1cnc([N+](=O)[O-])c1S(=O)(=O)Oc1ccccc1`, the GI50 was greater than 100 µM and the TGI is greater than 100 µM.
Turning to `COc1cc(C2c3cc4c(cc3C(O)C(CO)C2CO)OCO4)cc(OC)c1OC` (stereo unspecified), the GI50 is 2.6 µM and the TGI was greater than 100 µM.
The compound `CCCNC(=S)/N=C/c1c(O)c2ccccc2[nH]c1=O` registered a TGI greater than 100 µM.
With `COc1ccc(-c2oc(=O)ccc2-c2cc(OC)c(OC)c(OC)c2)cc1F`, the GI50 was 53.2 µM and the TGI was greater than 100 µM.
As for `O=C(c1ccc(F)c(F)c1Nc1ccc(I)cc1F)N1CC(O)([C@@H]2CCCCN2)C1`, the GI50 is 1.59 µM and 0.56 µM; the TGI is 21.1 µM and > 10 µM.
Turning to `Oc1cc(O)c2c(c1)OC(c1ccc(O)c(O)c1)C(OC1(c3cc(O)c(O)c(O)c3)Oc3cc(O)cc(O)c3C(O)C1O)C2` (stereo unspecified), the TGI was greater than 100 µM.
With `COC12C=C/C(=C(/C(=O)OCc3ccncc3)C(=O)CCCCCCCCC3(OC)C=C/C(=C(/C(=O)OCc4ccncc4)C(=O)CCCCCCCC1)O3)O2`, the GI50 is 1.28 µM and the TGI came to 7.17 µM.
As to `CCOc1ccc2nc(S/C(=C/C=C(C#N)C#N)c3ccc(C)cc3)sc2c1`, the GI50 is greater than 100 µM and the TGI is greater than 100 µM.
Turning to `COc1cc(CNCCCN2C(=O)c3ccc4c5c(ccc(c35)C2=O)C(=O)N(CCCNCc2cc(OC)c(OC)c(OC)c2)C4=O)cc(OC)c1OC`, the GI50 was 0.398 µM and the TGI was 1.25 µM.
Taken in the same sequence, the figures for `CC(C)=CCc1cc(O)cc2c1OC(C=C(C)C)C1=C2C(=O)C2=C(NCCS2(=O)=O)C1=O` (stereo unspecified) were 2.25 µM and 4.44 µM.
Taken in the same sequence, the figures for `O=c1[nH]c(=O)n(C2CC(O)C(CO)O2)cc1CO` (stereo unspecified) were 2.9 µM and greater than 100 µM.
Taken in the same sequence, the figures for `Cc1nc2cnc(N)c(C#Cc3cncc(C(=O)Nc4ccc(CN5CCN(C)CC5)c(C(F)(F)F)c4)c3)c2nc1C` were 4.36 µM and 16.9 µM.
`CC(=O)OC12c3ccccc3-c3ccccc3C1C1C(=O)N(C)C(=O)C12Cl` (stereo unspecified) registered a TGI greater than 10 µM.
`COc1ccc(C(O)c2nccn2C)c(OC)c1` (stereo unspecified) yielded a TGI greater than 100 µM.
In turn, `C1CSCCSCCS1` returned a TGI greater than 100 µM.
Still for that read-out and setting: as for `CC1=CC(=O)[C@@H](O)[C@]2(C)[C@H]3[C@@]4(O)OC[C@]35[C@H]([C@@H](C)[C@H]4O)[C@@H](O)C(=O)O[C@@H]5C[C@@H]12`, the figure is 3.69 µM; as for `O=c1cc(-c2ccccc2)[nH]c2c(S)cccc12`, greater than 100 µM.
`N#Cc1c(-c2ccc(F)cc2)c(-c2ccc(F)cc2)nn(CCO)c1=O` returned a TGI greater than 100 µM.
